Source: PMC3360617, “Pan-Pathway Based Interaction Profiling of FDA-Approved Nucleoside and Nucleobase Analogs with Enzymes of the Human Nucleotide Metabolism” (PLoS ONE, 2012)
Each block holds one compound with its values, some of them ahead of it.

Assays:
[1] = biological target: T1, deoxycytidine kinase (Homo sapiens, UniProt P27707); test: thermal shift assay (DSLS), concentration-dependent; format: binding; conditions: read-out: 500 μM NA (+1 mM ATP)
T1 construct: gene DCK

[2] = biological target: T2, Guanine deaminase (Homo sapiens, UniProt Q9Y2T3); test: as above; format: binding
T2 construct: gene GDA
T2 sequence (Q9Y2T3 1-454): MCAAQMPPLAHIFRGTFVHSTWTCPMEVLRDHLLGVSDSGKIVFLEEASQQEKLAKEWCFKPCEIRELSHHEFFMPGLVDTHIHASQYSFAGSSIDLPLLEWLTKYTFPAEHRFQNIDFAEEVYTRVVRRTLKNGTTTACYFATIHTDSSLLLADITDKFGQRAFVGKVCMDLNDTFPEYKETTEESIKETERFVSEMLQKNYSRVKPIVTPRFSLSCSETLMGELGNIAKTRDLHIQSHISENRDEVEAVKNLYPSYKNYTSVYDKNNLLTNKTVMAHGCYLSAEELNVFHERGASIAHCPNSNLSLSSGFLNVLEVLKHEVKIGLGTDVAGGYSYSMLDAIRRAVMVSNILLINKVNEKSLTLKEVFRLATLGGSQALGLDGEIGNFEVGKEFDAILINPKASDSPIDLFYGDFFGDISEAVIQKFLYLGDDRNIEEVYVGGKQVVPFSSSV

[3] = biological target: T3, Uridine phosphorylase 1 (Homo sapiens, UniProt Q16831); test: as above; format: binding; conditions: read-out: delta_Tm
T3 construct: gene UPP1
T3 sequence (Q16831 whole entry): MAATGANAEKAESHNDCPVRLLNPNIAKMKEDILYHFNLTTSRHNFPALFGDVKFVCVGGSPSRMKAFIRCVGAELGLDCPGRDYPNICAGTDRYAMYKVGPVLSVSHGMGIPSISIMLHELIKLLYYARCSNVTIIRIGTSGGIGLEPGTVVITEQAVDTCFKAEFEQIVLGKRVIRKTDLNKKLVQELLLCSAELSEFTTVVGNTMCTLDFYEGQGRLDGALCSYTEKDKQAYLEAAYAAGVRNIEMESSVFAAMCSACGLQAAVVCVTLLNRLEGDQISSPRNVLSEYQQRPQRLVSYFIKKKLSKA

[4] = biological target: T3, Uridine phosphorylase 1; test: thermal shift assay (DSLS), concentration-dependent; enhanced by […] ribose-1-phosphate; format: binding; conditions: read-out: ΔTagg (NA+R1P)
[5] = biological target: T2, Guanine deaminase; test: co-crystal structure at […] Å; thermal shift (DSLS), concentration-dependent; format: binding; conditions: read-out: delta_Tm
[6] = biological target: T3, Uridine phosphorylase 1; test: HPLC enzyme kinetics with uridine (Lineweaver-Burk); also thermal shift ([…]°C at […]); format: biochemical

T1 sequence (P27707 whole entry): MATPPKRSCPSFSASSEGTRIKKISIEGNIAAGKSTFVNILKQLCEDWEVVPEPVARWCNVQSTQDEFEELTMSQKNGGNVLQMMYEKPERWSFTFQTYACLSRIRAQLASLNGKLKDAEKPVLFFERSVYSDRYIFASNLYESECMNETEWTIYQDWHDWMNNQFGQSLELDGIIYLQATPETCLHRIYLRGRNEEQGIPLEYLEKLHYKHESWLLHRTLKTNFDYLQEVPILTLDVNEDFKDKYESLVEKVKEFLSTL

ΔTm at 500 µM [1]: 7.29 °C
Compound: Nc1ncn([C@H]2C[C@H](O)[C@@H](CO)O2)c(=O)n1 [Decitabine]

ΔTm at 500 µM [3]: 1.72 °C
Compound: O=c1[nH]c(=O)n([C@H]2C[C@H](O)[C@@H](CO)O2)cc1I [idoxuridine]

ΔTm at 500 µM [4]: 3.78 °C
Compound: O=c1[nH]c(=O)n([C@H]2C[C@H](O)[C@@H](CO)O2)cc1C(F)(F)F [trifluridine]

ΔTm at 1000 µM [5]: ~7 °C
Compound: CC(C)[C@H](N)C(=O)OCCOCn1cnc2c(=O)[nH]c(N)nc21 [valaciclovir]

Ki [6]: 390 µM
Compound: Nc1ncnc2c1ncn2[C@@H]1O[C@H](CO)[C@@H](O)[C@@H]1O [vidarabine]

Second part, the compound before the results:

Compound: Nc1ccn([C@@H]2O[C@H](CO)[C@@H](O)C2(F)F)c(=O)n1 [Gemcitabine]
ΔTm at 500 µM [1]: 5.22 °C

Compound: Nc1nc2c(ncn2COCCO)c(=O)[nH]1 [aciclovir]
thermal shift assay (DSLS), concentration-dependent [2]: Interactions were detected between GDA and valaciclovir, aciclovir, penciclovir, ganciclovir, thioguanine and mercaptopurine

Compound: Nc1nc2c(ncn2CCC(CO)CO)c(=O)[nH]1 [penciclovir]
thermal shift assay (DSLS), concentration-dependent [2]: Thioguanine, ganciclovir, aciclovir, penciclovir, valaciclovir, flucytosine and idoxuridine showed concentration-dependent stabilization of GDA

Compound: Nc1nc2nc[nH]c2c(=S)[nH]1 [thioguanine]
thermal shift assay (DSLS), concentration-dependent [2]: followed in decreasing order by thioguanine, acyclovir, penciclovir, ganciclovir and mercaptopurine
